The values below are quoted from earlier work in patent publication US10385405B2, “Gene expression markers of tumor resistance to HER2 inhibitor treatment” (GENENTECH, INC., priority 2007, dated 2019).

Series [1] concerns trastuzumab-resistant models harboring PTEN loss or PIK3CA activating mutations.
The subject of series [2] is incurable, locally advanced, recurrent or metastatic solid tumors.

`CS(=O)(=O)N1CCN(Cc2cc3nc(-c4cccc5[nH]ncc45)nc(N4CCOCC4)c3s2)CC1` [GDC-0941]: the “sensitivity of trastuzumab-resistant models” value in series [1] was “sensitive”.
Consider “Pertuzumab: HER dimerization inhibitor antibody that inhibits HER2 forming heterodimers with other HER receptors”, for which the tolerability entry in series [2] (given intravenously every 3 weeks) is on record as “generally well tolerated”. The confirmed partial responses result in series [2] (in vivo) is recorded as “Two”. Besides, the tumor regression in series [2] (patients evaluable for response) is given as 3 of 20. In addition, the “pharmacokinetics, linearity” value (doses of 2.0-15 mg/kg) was “linear”. Further, for the setting “in vivo”, the antibodies to pertuzumab result was “not detected”.
